We go through 38 molecules from ChEMBL document CHEMBL4765349, “Design, synthesis and biological evaluation of novel N-sulfonylamidine-based derivatives as c-Met inhibitors via Cu-catalyzed three-component reaction” (Eur J Med Chem, 2020).

One assay deals with MKN-45. The experiment in a line: Cytotoxicity against human MKN-45 cells assessed as inhibition of cell proliferation measured after 72 hrs by MTT assay. Conditions: MKN-45, 72 h. It is filed as functional, cell-based. For orientation: Tetrazolium assays rely on reduction of a dye to a coloured formazan, in cell work by metabolically active cells.
For another assay, the system named is MDA-MB-231. Put plainly: Cytotoxicity against human MDA-MB-231 cells assessed as inhibition of cell proliferation measured after 72 hrs by MTT assay. It is filed as functional, cell-based. The settings on record: MDA-MB-231, 72 h.
The next assay deals with HT-29. Put plainly: cells. The settings on record: Homo sapiens, HT-29, 72 h.
The test system of the next assay is A549. Put plainly: cells. Conditions: Homo sapiens, A549, 72 h.

`COCC/C(=N\S(=O)(=O)Cc1ccc(F)cc1)Nc1ccc(Oc2ccnc3cc(OC)c(OC)cc23)c(F)c1`: the IC50 in the assay on MKN-45 was found to be 2.15 µM; in the assay on MDA-MB-231 it was 4.24 µM; in the assay with HT-29 it was 1.68 µM; in the assay with A549 it was 1.42 µM.

For `COCC/C(=N\S(=O)(=O)Cc1ccc(Cl)c(Cl)c1)Nc1ccc(Oc2ccnc3cc(OCCCN4CCOCC4)c(OC)cc23)c(F)c1`, the concentration for half-maximal inhibition (IC50) was found to be 0.72 µM in the assay with MKN-45, 1.04 µM with MDA-MB-231, 0.59 µM in the assay on HT-29 and 0.47 µM with A549.

As to `COCC/C(=N\S(=O)(=O)Cc1ccc(Cl)c(Cl)c1)Nc1ccc(Oc2ccnc3cc(OCCCN4CCCCC4)c(OC)cc23)c(F)c1`, the 50% inhibitory concentration (IC50) came out at 0.88 µM in the assay on MKN-45, 0.93 µM with MDA-MB-231, 0.78 µM in the assay with HT-29 and 0.67 µM in the assay on A549.

`COCC/C(=N\S(=O)(=O)Cc1ccc(Br)cc1)Nc1ccc(Oc2ccnc3cc(OC)c(OC)cc23)c(F)c1`: the half-inhibitory concentration (IC50) came out at 11.3 µM in the assay with MKN-45, 12.1 µM with MDA-MB-231, 8.03 µM in the assay with HT-29 and 7.14 µM in the assay with A549.

Turning to `COc1cc2nccc(Oc3ccc(N/C(Cc4cccnc4)=N\S(=O)(=O)Cc4ccc(F)cc4)cc3F)c2cc1OC`, the 50% inhibitory concentration (IC50) was determined as 18.6 µM in the assay on MKN-45, 22.3 µM with MDA-MB-231, 15.5 µM with HT-29 and 13.2 µM with A549.

For the molecule `COCC/C(=N\S(=O)(=O)Cc1ccc(Cl)cc1)Nc1ccc(Oc2ccnc3cc(OCCCN4CCCCC4)c(OC)cc23)c(F)c1`, the IC50 with MKN-45 came to 0.65 µM; with MDA-MB-231 it was 1.12 µM; with HT-29, 0.41 µM; in the assay with A549, 0.35 µM.

For `CCCCC/C(=N\S(=O)(=O)Cc1ccc(F)cc1)Nc1ccc(Oc2ccnc3cc(OC)c(OC)cc23)c(F)c1`, the concentration for half-maximal inhibition (IC50) in the assay with MKN-45 came out at 5.54 µM; in the assay with MDA-MB-231, 9.04 µM; in the assay with HT-29 it was 5.18 µM; in the assay with A549, 4.6 µM.

For `CCCCC/C(=N\S(=O)(=O)Cc1ccccc1)Nc1ccc(Oc2ncnc3cc(OC)c(OC)cc23)c(F)c1`, the concentration for half-maximal inhibition (IC50) in the assay on HT-29 amounted to 30.5 µM; in the assay on A549, 27.1 µM.

For the molecule `CCCCC/C(=N\S(=O)(=O)Cc1ccc(F)cc1)Nc1ccc(Oc2ncnc3ccsc23)c(F)c1`, the IC50 with MKN-45 was determined as 12.5 µM; in the assay with MDA-MB-231, 16.8 µM; in the assay on HT-29, 11.2 µM; in the assay with A549, 10.3 µM.

For the molecule `COc1cc2nccc(Oc3ccc(N/C(Cc4ccsc4)=N\S(=O)(=O)Cc4ccc(F)cc4)cc3F)c2cc1OC`, the IC50 in the assay with MKN-45 came out at 11.9 µM; with MDA-MB-231 it was 19.5 µM; in the assay with HT-29, 11.2 µM; in the assay with A549, 10.1 µM.

As to `COCC/C(=N\S(=O)(=O)Cc1ccc(Cl)c(Cl)c1)Nc1ccc(Oc2ccnc3cc(OCCCN4CCN(C)CC4)c(OC)cc23)c(F)c1`, the IC50 in the assay with MKN-45 came out at 0.82 µM; with MDA-MB-231 it was 1.35 µM; in the assay on HT-29 it was 0.74 µM; in the assay with A549 it was 0.61 µM.

Consider `CCCCC/C(=N\S(=O)(=O)Cc1ccccc1)Nc1ccc(Oc2ncnc3ccsc23)c(F)c1`, for which the half-maximal inhibitory concentration (IC50) worked out at 21.9 µM in the assay with MKN-45, 25.6 µM in the assay with MDA-MB-231, 18.6 µM in the assay on HT-29 and 17.3 µM in the assay on A549.

For the molecule `COCC/C(=N\S(=O)(=O)Cc1ccc(C)cc1)Nc1ccc(Oc2ccnc3cc(OC)c(OC)cc23)c(F)c1`, the IC50 in the assay on MKN-45 is 9.75 µM; in the assay with MDA-MB-231, 13.7 µM; in the assay on HT-29 it was 8.74 µM; in the assay with A549, 8.02 µM.

As to `COc1cc2nccc(Oc3ccc(N/C(C)=N/S(=O)(=O)Cc4ccc(F)cc4)cc3F)c2cc1OC`, the half-inhibitory concentration (IC50) in the assay on MKN-45 worked out at 4.55 µM; in the assay on MDA-MB-231, 7.65 µM; in the assay with HT-29, 4.12 µM; with A549, 3.76 µM.

In the case of `COc1cc2nccc(Oc3ccc(N/C(CC4CCCCC4)=N\S(=O)(=O)Cc4ccccc4)cc3F)c2cc1OC`, the IC50 was found to be 16.3 µM in the assay on MKN-45, 20.4 µM in the assay with MDA-MB-231, 14.5 µM with HT-29 and 12.2 µM in the assay on A549.

In the case of `COCC/C(=N\S(=O)(=O)Cc1ccc(Cl)cc1)Nc1ccc(Oc2ccnc3cc(OC)c(OC)cc23)c(F)c1`, the IC50 in the assay with MKN-45 was 1.05 µM; in the assay on MDA-MB-231 it was 2.32 µM; in the assay on HT-29 it was 0.91 µM; in the assay with A549, 0.62 µM.

Take `CCCCOc1cc2nccc(Oc3ccc(N/C(CCOC)=N/S(=O)(=O)Cc4ccc(Cl)cc4)cc3F)c2cc1OC`: the 50% inhibitory concentration (IC50) with MKN-45 came out at 3.05 µM; in the assay with MDA-MB-231 it was 5.46 µM; in the assay on HT-29, 2.85 µM; with A549 it was 2.56 µM.

As for `COc1cc2nccc(Oc3ccc(N/C(Cc4ccccc4)=N\S(=O)(=O)Cc4ccc(F)cc4)cc3F)c2cc1OC`, the IC50 in the assay on MDA-MB-231 turned out to be 32.5 µM; in the assay on HT-29 it was 23.7 µM; in the assay on A549, 20.4 µM.

As for `CCCCOc1cc2nccc(Oc3ccc(N/C(CCOC)=N/S(=O)(=O)Cc4ccc(Cl)c(Cl)c4)cc3F)c2cc1OC`, the IC50 was 4.36 µM in the assay on MKN-45, 7.19 µM with MDA-MB-231, 4.05 µM with HT-29 and 3.53 µM with A549.

In the case of `COc1cc2nccc(Oc3ccc(N/C(CC4CCCCC4)=N\S(=O)(=O)Cc4ccc(F)cc4)cc3F)c2cc1OC`, the IC50 in the assay with MKN-45 was found to be 15.2 µM; in the assay on MDA-MB-231, 19.7 µM; in the assay with HT-29, 10.3 µM; in the assay with A549 it was 9.43 µM.

For the molecule `COCC/C(=N\S(=O)(=O)Cc1ccccc1F)Nc1ccc(Oc2ccnc3cc(OC)c(OC)cc23)c(F)c1`, the 50% inhibitory concentration (IC50) in the assay with MKN-45 came out at 3.26 µM; in the assay on MDA-MB-231, 5.67 µM; in the assay with HT-29 it was 3.16 µM; in the assay on A549, 2.85 µM.

For `COCC/C(=N\S(=O)(=O)Cc1ccc(Cl)cc1)Nc1ccc(Oc2ccnc3cc(OCCCN4CCN(C)CC4)c(OC)cc23)c(F)c1`, the IC50 with MKN-45 came to 0.61 µM; with MDA-MB-231, 1.24 µM; in the assay on HT-29, 0.36 µM; in the assay with A549, 0.32 µM.

`COc1cc2nccc(Oc3ccc(N/C(C)=N/S(=O)(=O)Cc4ccccc4)cc3F)c2cc1OC`: the concentration for half-maximal inhibition (IC50) with MKN-45 was found to be 5.99 µM; in the assay with MDA-MB-231, 9.29 µM; in the assay on HT-29, 5.85 µM; in the assay on A549, 5.16 µM.

For `CCCCC/C(=N\S(=O)(=O)Cc1ccc(F)cc1)Nc1ccc(Oc2ncnc3cc(OC)c(OC)cc23)c(F)c1`, the IC50 with MKN-45 is 23.4 µM; in the assay with MDA-MB-231, 31.8 µM; in the assay on HT-29 it was 22.1 µM; in the assay with A549, 18.6 µM.

Regarding `CCCCC/C(=N\S(=O)(=O)Cc1ccc(F)cc1)Nc1ccc(Oc2ccnc3ccsc23)c(F)c1`, the IC50 in the assay on MKN-45 came to 9.17 µM; with MDA-MB-231, 14.6 µM; in the assay with HT-29, 7.06 µM; in the assay on A549 it was 6.23 µM.

Regarding `COCC/C(=N\S(=O)(=O)Cc1ccc(Cl)c(Cl)c1)Nc1ccc(Oc2ccnc3cc(OCCCN4CCC(C)CC4)c(OC)cc23)c(F)c1`, the IC50 with MKN-45 worked out at 1.15 µM; in the assay with MDA-MB-231, 1.98 µM; with HT-29, 0.88 µM; in the assay with A549, 0.72 µM.

Turning to `CCCCC/C(=N\S(=O)(=O)Cc1ccccc1)Nc1ccc(Oc2ccnc3cc(OC)c(OC)cc23)c(F)c1`, the IC50 is 9.28 µM with MKN-45, 12.8 µM in the assay on MDA-MB-231, 8.26 µM in the assay with HT-29 and 7.55 µM in the assay on A549.

For `COCC/C(=N\S(=O)(=O)Cc1ccc(C(F)(F)F)cc1)Nc1ccc(Oc2ccnc3cc(OC)c(OC)cc23)c(F)c1`, the IC50 worked out at 15.3 µM with MKN-45, 20.4 µM in the assay on MDA-MB-231, 13.2 µM with HT-29 and 11.3 µM with A549.

In the case of `COCC/C(=N\S(=O)(=O)Cc1ccccc1C)Nc1ccc(Oc2ccnc3cc(OC)c(OC)cc23)c(F)c1`, the IC50 came out at 5.16 µM in the assay with MKN-45, 8.19 µM with MDA-MB-231, 4.85 µM in the assay with HT-29 and 4.15 µM in the assay with A549.

Take `COCC/C(=N\S(=O)(=O)Cc1ccccc1)Nc1ccc(Oc2ccnc3cc(OC)c(OC)cc23)c(F)c1`: the IC50 with MKN-45 stood at 4.05 µM; in the assay with MDA-MB-231, 6.64 µM; in the assay on HT-29, 3.52 µM; in the assay on A549, 3.14 µM.

With `CCCCC/C(=N\S(=O)(=O)Cc1ccccc1)Nc1ccc(Oc2ccnc3ccsc23)c(F)c1`, the IC50 was 11.5 µM in the assay on MKN-45, 15.3 µM with MDA-MB-231, 9.63 µM in the assay with HT-29 and 8.68 µM in the assay with A549.

Turning to `COCC/C(=N\S(=O)(=O)Cc1cccc(F)c1)Nc1ccc(Oc2ccnc3cc(OC)c(OC)cc23)c(F)c1`, the IC50 in the assay on MKN-45 was 3.52 µM; in the assay on MDA-MB-231 it was 5.34 µM; with HT-29 it was 2.47 µM; in the assay on A549 it was 2.14 µM.

Consider `COc1cc2nccc(Oc3ccc(N/C(Cc4ccsc4)=N\S(=O)(=O)Cc4ccccc4)cc3F)c2cc1OC`, for which the IC50 in the assay with MDA-MB-231 worked out at 23.8 µM; with HT-29, 16.5 µM; in the assay with A549 it was 14.3 µM.

On to `COCC/C(=N\S(=O)(=O)Cc1ccc(Cl)cc1)Nc1ccc(Oc2ccnc3cc(OCCCN4CCC(C)CC4)c(OC)cc23)c(F)c1`, for which the concentration for half-maximal inhibition (IC50) in the assay with MKN-45 was 0.76 µM; in the assay with MDA-MB-231, 1.56 µM; in the assay on HT-29, 0.55 µM; in the assay with A549 it was 0.38 µM.

As for `COc1cc2nccc(Oc3ccc(N/C(Cc4ccccc4)=N\S(=O)(=O)Cc4ccccc4)cc3F)c2cc1OC`, the IC50 in the assay with MKN-45 came out at 26.3 µM; with HT-29 it was 32.6 µM; in the assay with A549, 28.4 µM.

On to `COCC/C(=N\S(=O)(=O)Cc1ccc(Cl)c(Cl)c1)Nc1ccc(Oc2ccnc3cc(OC)c(OC)cc23)c(F)c1`, for which the IC50 in the assay on MKN-45 is 1.16 µM; with MDA-MB-231, 3.32 µM; in the assay on HT-29, 0.88 µM; in the assay on A549 it was 0.71 µM.

Turning to `COc1cc2nccc(Oc3ccc(N/C(Cc4cccnc4)=N\S(=O)(=O)Cc4ccccc4)cc3F)c2cc1OC`, the IC50 worked out at 22.9 µM in the assay with MKN-45, 28.3 µM in the assay with MDA-MB-231, 20.6 µM with HT-29 and 18.1 µM in the assay on A549.

For the molecule `COCC/C(=N\S(=O)(=O)Cc1cccc(C)c1)Nc1ccc(Oc2ccnc3cc(OC)c(OC)cc23)c(F)c1`, the IC50 came to 9.15 µM in the assay on MKN-45, 13.1 µM with MDA-MB-231, 8.02 µM with HT-29 and 7.54 µM with A549.

Broadly, the IC50 is the concentration that gives 50% inhibition.
